# Test results: patent US20240058328A1, “MASITINIB FOR THE TREATMENT OF ALZHEIMER'S DISEASE” (AB SCIENCE, priority 2020, published 2024)
# Tested on: patients with Alzheimer's disease
# Assay: Phase 3 study AB09004: change from baseline in ADAS-Cog score
# Format: in vivo, human
# Parameters: key to δLSM (ADAS-Cog) / 8LSM (ADAS-Cog): LSM diff. of ADAS-Cog change from baseline; negative = improvement
# Details: for ALSM (ADAS-Cog) / 8LSM (ADAS-Cog) / ΔLSM (ADAS-Cog) / δLSM (ADAS-Cog): 4.5 mg/kg/day; for ALSM (ADAS-Cog) / ΔLSM (ADAS-Cog): vs placebo, week 24; for 8LSM (ADAS-Cog) / δLSM (ADAS-Cog): week 24 from baseline
# Method: An international, multicenter, randomized, double-blind, placebo-controlled phase 3 study was conducted with the objective to evaluate oral masitinib at a dose of 4.5 mg/kg/day as a treatment for Alzheimer's disease.
# Eligible patients, aged at least 50 years, were diagnosed with dementia of Alzheimer's type according to Diagnostic and Statistical Manual of Mental Disorders (DSM)-IV criteria, and probable Alzheimer's disease according to NINCDS-ADRDA (National Institute of Neurological and Communicative Diseases and Stroke/Alzheimer's Disease and Related Disorders Association) criteria. […] Patients with any other cause of dementia not due to Alzheimer's disease were ineligible for the study.
# Eligible patients were treated during 24 weeks with masitinib at a dose of 4.5 mg/kg/day (mg per kilo body weight per day) or with placebo. Treatment was administered as add-on therapy in patients who had been treated for a minimum of 6 months with a stable dose of cholinesterase inhibitors (donepezil, rivastigmine or galantamine) and/or memantine, with no changes foreseen in therapy throughout the study.
# Primary analysis was based on the co-primary endpoints of: • Change from baseline in Alzheimer's Disease Cooperative Study Activities of Daily Living (ADCS-ADL) score. The ADCS-ADL assesses the competence of patients with Alzheimer's disease in basic and instrumental activities of daily living (ADLs). • Change from baseline in Alzheimer's Disease Assessment Scale-Cognitive Subscale (ADAS-Cog). The ADAS-Cog assesses cognition and memory.
# Treatment effect (masitinib versus placebo) was assessed based on absolute change from baseline to week 24 by using an analysis of covariance model (ANCOVA linear model) with the following factors: treatment, baseline value, and stratification criteria of baseline MMSE score, age, ADCS-ADL total score, and ADAS-Cog total score.
# The ADAS-Cog version used in study AB09004 included 11 items regrouped as follows: language (items 1, 2, 3), praxia and gnosia (items 5, 7, 8, 9), memory (items 4, 10, 11), orientation (item 6). The items range either from 0 to 5 (items 1, 2, 3, 5, 7, 8, 9, 11), or from 0 to 8 (item 6), or from 0 to 10 (item 4), or from 0 to 12 (item 10). The global score, which is the sum of the 11 items, ranges from 0 to 70, with higher scores indicating greater cognitive impairment. Results are expressed as a least-squares means difference (δLSM) of absolute change in ADAS-Cog score from baseline; that is to say, the change over time in the ADAS-Cog score, or in other words the difference between the ADAS-Cog score at baseline and the ADAS-Cog score after treatment with masitinib or with placebo. A decrease in ADAS-Cog score with respect to baseline (i.e., a negative δLSM) indicates an improvement in the patient and therefore disease stability, whereas an increase in ADAS-Cog score with respect to baseline (i.e., a positive δLSM) indicates a worsening in the patient and therefore disease progression. Treatment-effect is reported as the difference between treatment-arms (ΔLSM) (calculated as δLSM[masitinib] minus δLSM[placebo]), with a negative value indicating a beneficial effect of treatment with masitinib as compared with placebo. In a scenario where both treatment-arms show worsening in cognitive function (i.e., a positive δLSM), then a negative ΔLSM indicates a beneficial treatment effect for masitinib, i.e., the rate of decline in masitinib treated patients is slower than that of patients from the placebo-arm. […]
smiles,measurement,setting,value
"Cc1ccc(NC(=O)c2ccc(CN3CCN(C)CC3)cc2)cc1Nc1nc(-c2cccnc2)cs1 [masitinib, 4-(4-methylpiperazin-1-ylmethyl)-N-[4-methyl-3-(4-pyridin-3ylthiazol-2-ylamino)phenyl]benzamide]",ALSM (ADAS-Cog),Baseline ADAS-Cog >32,−1.6044 points
same,8LSM (ADAS-Cog),Baseline ADAS-Cog >32,−7.2739
same,ALSM (ADAS-Cog),Baseline ADAS-Cog >40,−0.2351 points
same,8LSM (ADAS-Cog),Baseline ADAS-Cog >40,−4.9348
same,ALSM (ADAS-Cog),Baseline ADAS-Cog ≤32,−2.1011 points
same,8LSM (ADAS-Cog),Baseline ADAS-Cog ≤32,−1.5266
same,ALSM (ADAS-Cog),Baseline ADAS-Cog ≤40,−2.3299 points
same,8LSM (ADAS-Cog),Baseline ADAS-Cog ≤40,−1.4472
same,ΔLSM (ADAS-Cog),Diagnosis >2 years,−1.3581 points
same,δLSM (ADAS-Cog),Diagnosis >2 years,−1.2197
same,ΔLSM (ADAS-Cog),Diagnosis >3 years,−0.3770 points
same,δLSM (ADAS-Cog),Diagnosis >3 years,−0.7048
same,ΔLSM (ADAS-Cog),Diagnosis >4 years,−1.3426 points
same,δLSM (ADAS-Cog),Diagnosis >4 years,−1.2607
same,ΔLSM (ADAS-Cog),Diagnosis >5 years,−1.4470 points
same,δLSM (ADAS-Cog),Diagnosis >5 years,−1.4756
same,ΔLSM (ADAS-Cog),Diagnosis ≤2 years,−2.7754 points
same,δLSM (ADAS-Cog),Diagnosis ≤2 years,−1.6958
same,ΔLSM (ADAS-Cog),Diagnosis ≤3 years,−2.8700 points
same,δLSM (ADAS-Cog),Diagnosis ≤3 years,−1.7671
same,ΔLSM (ADAS-Cog),Diagnosis ≤4 years,−2.3435 points
same,δLSM (ADAS-Cog),Diagnosis ≤4 years,−1.4948
same,ΔLSM (ADAS-Cog),Diagnosis ≤5 years,−2.2599 points
same,δLSM (ADAS-Cog),Diagnosis ≤5 years,−1.4394
same,ΔLSM (ADAS-Cog),MMSE <13,−0.4996 points
same,δLSM (ADAS-Cog),MMSE <13,2.1702
same,ΔLSM (ADAS-Cog),MMSE <14,1.0497 points
same,δLSM (ADAS-Cog),MMSE <14,3.6165
same,ΔLSM (ADAS-Cog),MMSE <15,−1.0976 points
same,δLSM (ADAS-Cog),MMSE <15,1.5482
same,ΔLSM (ADAS-Cog),MMSE <16,−1.0624 points
same,δLSM (ADAS-Cog),MMSE <16,0.8538
same,ΔLSM (ADAS-Cog),MMSE <17,−1.0127 points
same,δLSM (ADAS-Cog),MMSE <17,0.9251
same,ΔLSM (ADAS-Cog),MMSE [12-20],−1.7387 points
same,δLSM (ADAS-Cog),MMSE [12-20],−1.0350
same,ΔLSM (ADAS-Cog),MMSE [25-21],−2.8929 points
same,δLSM (ADAS-Cog),MMSE [25-21],−2.4719
same,ΔLSM (ADAS-Cog),MMSE ≥13,−2.1488 points
same,δLSM (ADAS-Cog),MMSE ≥13,−1.4717
same,ΔLSM (ADAS-Cog),MMSE ≥14,−2.4192 points
same,δLSM (ADAS-Cog),MMSE ≥14,−1.8028
same,ΔLSM (ADAS-Cog),MMSE ≥15,−2.2577 points
same,δLSM (ADAS-Cog),MMSE ≥15,−1.8834
same,ΔLSM (ADAS-Cog),MMSE ≥16,−2.2907 points
same,δLSM (ADAS-Cog),MMSE ≥16,−2.0435
same,ΔLSM (ADAS-Cog),MMSE ≥17,−2.4915 points
same,δLSM (ADAS-Cog),MMSE ≥17,−2.3004
same,ΔLSM (ADAS-Cog),Overall Population,−2.1485 points
same,δLSM (ADAS-Cog),Overall Population,−1.4550
same,Δsub/Δoverall,"ratio of ΔLSM (ADAS-Cog) at W24, Diagnosis ≤2 years vs overall study population",1.29
same,Δsub/Δoverall,"ratio of ΔLSM (ADAS-Cog) at W24, Diagnosis ≤3 years vs overall study population",1.34
same,Δsub/Δoverall,"ratio of ΔLSM (ADAS-Cog) at W24, Diagnosis ≤4 years vs overall study population",1.09
same,Δsub/Δoverall,"ratio of ΔLSM (ADAS-Cog) at W24, Diagnosis ≤5 years vs overall study population",1.05
same,Δsub/Δoverall,"ratio of ΔLSM (ADAS-Cog) at W24, MMSE [20-12] vs overall study population",0.81
same,Δsub/Δoverall,"ratio of ΔLSM (ADAS-Cog) at W24, MMSE [25-21] vs overall study population",1.35
same,Δsub/Δoverall (percentage improvement),"ΔLSM (ADAS-Cog) at W24, Diagnosis ≤2 years vs overall study population",29%
same,Δsub/Δoverall (percentage improvement),"ΔLSM (ADAS-Cog) at W24, Diagnosis ≤2 years vs overall study population, listed as M4.5",(29%)
same,Δsub/Δoverall (percentage improvement),"ΔLSM (ADAS-Cog) at W24, Diagnosis ≤3 years vs overall study population",34%
same,Δsub/Δoverall (percentage improvement),"ΔLSM (ADAS-Cog) at W24, Diagnosis ≤3 years vs overall study population, listed as M4.5",(34%)
same,Δsub/Δoverall (percentage improvement),"ΔLSM (ADAS-Cog) at W24, Diagnosis ≤4 years vs overall study population",(9%)
same,Δsub/Δoverall (percentage improvement),"ΔLSM (ADAS-Cog) at W24, Diagnosis ≤5 years vs overall study population",(5%)
same,Δsub/Δoverall (percentage improvement),"ΔLSM (ADAS-Cog) at W24, MMSE [20-12] vs overall study population",(−19%)
same,Δsub/Δoverall (percentage improvement),"ΔLSM (ADAS-Cog) at W24, MMSE [25-21] vs overall study population",35%
same,Δsub/Δoverall (percentage improvement),"ΔLSM (ADAS-Cog) at W24, MMSE [25-21] vs overall study population, listed as M4.5",(35%)
same,improved benefit relative to complementary subpopulation,"ΔLSM (ADAS-Cog), baseline MMSE 25 to 21 relative to MMSE 20 to 12, printed as 'between 99% to 66%'",66%
